Reference: article PMC7546004, “Targeting BCL10 by small peptides for the treatment of B cell lymphoma” (Theranostics, 2020)
Square brackets hold non-standard residues; d marks the D form. Peptide text beside a SMILES is read from it.

Experiments:
MBP-BCL10 = target: T1, MBP-BCL10 (Homo sapiens, UniProt O95999); experiment: Co-immunoprecipitation of peptide with MBP-BCL10; assay type: binding; settings: biotinylated peptide, streptavidin beads, 4 °C
T1 construct: made in house
Procedure: (§1) MBP-Bcl10 was expressed and purified as previously described {Qiao, 2013 #85}. Purified
(§2) mM NaCl, 1% NP-40) at 4 °C for 1 hour, followed by addition of 5% BSA blocked S t re ptavidin (SAV)
(§3) Immunoprecipitant were washed 5 times with IP buffer and separated by SDS-PA G E . […]
(§4) hActin- F: 5’-[…]-3’
(§5) hIL6-R: 5’- […]-3 ’.
(§6) hBcl10-F: 5’-[…] TAGAAA-3’

TMD8 cells = assay type: cell-based, human
Excerpt: (§7) GraphPad Prism software was used to determine GI50 values.

DLBCL cell lines = assay type: cell-based; settings: Figure 6D and Figure S7D
Excerpt: as §7

HBL1 cells [1] = assay type: cell-based
Excerpt: as §7

HBL1 cells [2] = experiment: Intracellular pharmacokinetics, BCL10-P4 versus DRI-BCL10-P4
Procedure: as §1, §2, §3, §4, §5, §6
hBcl10-R: 5’-[…] T-3’
1x105 HBL1, TMD8, OCl-LY 1 , OCl-LY 1 , U2932, MD901 or RCK8 cells were seeded in 12-well plate
wa sh e d and lysed with RIPA buffer.
immunoblotting with Streptavidin (Cell signaling, cat. #3999S). […]

NF-κB signalling pathway = experiment: Western blot of NF-κB pathway proteins (IKKβ, p-IKKβ, IκBα, p-IκBα); assay type: cell-based; settings: 12 h, indicated concentrations; Figure 6E
Procedure: Cell pellets were lysed in RIPA buffer (50 mM Tris at pH 8.0, 150 mM NaCl, 1% NP-40, 1 mM EDTA, and 1X protease inhibitor cocktail) or RIPA buffer containing 0.1% SDS. Equal amounts of protein extracts were separated by SDS-PAGE and blotted onto polyvinylidene difluoride (PVDF) membranes. The following Antibodies were purchased and used in this study: anti-IκBα (10268-1), anti-IKKβ (20979-1), anti-Bcl2 (12789-1-AP), anti-GAPDH (10494-1-AP), and anti-β-actin (66009-1-AP) were from Proteintech; anti-p-IκBα (2859S), anti-p-IKKβ (2697S), anti-RelB (10544), anti-α-tubulin (5335), anti-PARP (9532S), and anti-CARMA1 (4435) were from Cell Signaling Technology; anti-β-actin (A1978) was from Sigma; anti-Bcl10 (A1106) was from ABclonal; anti-A20 (sc-166692), anti-CYLD (sc-74435), and anti-MALT1 (sc-46677) were from Santa Cruz; anti-HOIL-1 (HPA024185) was from Atlas Antibodies; and anti-Myc (ab9106) was from Abcam.

TMD8 and SU-DHL4 cells = experiment: Cell cycle analysis (PI, flow cytometry); assay type: cell-based; settings: 5 μM or 10 μM, 24 h; two independent experiments
Procedure: For cell cycle analysis, cells were washed twice with cold PBS and fixed in 70% ethanol overnight at 4°C. Fixed cells were collected at 1800 rpm for 10 min and stained with PBS containing PI and DNase-free RNase A (Sigma-Aldrich) for 1h at room temperature in the dark. DNA content was measured by BD LSRII flow cytometer and data were analyzed in FloJo. […]
Committee of Changhai Hospital, the Second Military Medical University.
(§8) Immunohistochemistry (IHC)
(§9) Formalin-fixed paraffin -embedded tumor xenografts were sectioned, dewaxed and submitted to antigen retrieval. The anti- Ki67 (proteintech, 27309-1) antibody was used at a 1:500 dilution.
(§10) Biotin-conjugated secondary antibodies (MXB biotechnologies, KIT-9710) were used. Then avidin/biotin peroxidase (MXB biotechnologies, KIT-9710) was applied to the slides. Color was developed with diaminobenzoate chromogen peroxidase substrate (MXB biotechnologies, MAX007TM) and counterstained with […] (MXB biotechnologies, MAX007TM). Pictures were obtained using NanoZoomer-S60 microscope ([…]).

[3] = test system: OCI-LY1 cell xenograft tumors; experiment: Mouse xenograft model; assay type: in vivo, NCG mice; settings: DRI-BCL10-P4 10 mg/kg or BCL10-Ctl 5 mg/kg daily, i.v.; Figure S8A-C
Procedure: (§11) Mouse xenograft experiments:
(§12) Six-week-old female NOD prkdc-/- IL-2Rg-/- (NCG) mice purchased from GemPharmatech Co., Lt d we re raised in a SPF- level Laboratory Animal Room. Low -passage 5x106 human TMD8, SU-DHL- 6 or 1x10^7 OCl-LY1 cells at 100μl were premixed with 100μl Matrigel (Corning Biocoat, cat. # 354234) and inoculated subcutaneously into the right flank of mice. When tumors reached an average size of 150 mm3, mice were randomly assigned into treatment groups (10 mg /kg DRI-BCL10- P4) or control groups (5 mg /kg BCL10- Ctl). Peptides were reconstituted in 5% DMSO/PBS and administered by i.v. injection. Tumor volumes were monitored by a digital caliper every other day and calculated using the formula: (smallest diameter2 x largest diameter)/2. Mice were weighed every day and sacrificed at the end of the treatment. T umors and main organs were harvested and we i ghte d at the moment of death. All animal experiments were approved by the Animal Institute Committee of Changhai Hospital, the Second Military Medical University.
as §8, §9, §10
(§13) Terminal deoxynucleotidyl transferase dUTP nick end labeling, TUNEL assay was used to detect apoptotic DNA fragmentation. All the experiments were performed according to the kit (KeyGEN Biotech, KGA703) instructions. Briefly, formalin-fixed paraff i n-embedded xenografted tumors were deparaffinized and pre-treated with trypsin to expose DNA. Endogenous peroxidase was quenched using 3% hydrogen peroxide followed by incubation with TdT enzyme for 1 hour. Then, antidigoxigenin-peroxidase was applied to the slides. Color was developed with diaminobenzoate chromogen peroxidase substrate and counterstained with methyl green. Pictures were obtained using NanoZoomer-S60 microscope ([…]).

[4] = test system: TMD8 cell xenograft tumors; experiment: Mouse xenograft model; assay type: in vivo, NCG mice
Procedure: as §11, §12, §8, §9, §10, §13

[5] = test system: SU-DHL6 cell xenograft tumors; experiment: Mouse xenograft model; assay type: in vivo, NCG mice; settings: DRI-BCL10-P4 10 mg/kg Q.d. or BCL10-Ctl 5 mg/kg Q.d., i.v.; n=8; p=0.049, Mann-Whitney U test
Procedure: as §11, §12, §8, §9
(§14) Biotin-conjugated secondary antibodies (MXB biotechnologies, KIT-9710) were used. […]

[6] = Tolerability in xenograft mice (body weight, histology of major organs); assay type: in vivo, NCG mice
Procedure: as §11, §12, §8, §9, §14

[7] = TMD8 xenograft, 10 mg/kg, compared with control group

T1 sequence (O95999 whole entry): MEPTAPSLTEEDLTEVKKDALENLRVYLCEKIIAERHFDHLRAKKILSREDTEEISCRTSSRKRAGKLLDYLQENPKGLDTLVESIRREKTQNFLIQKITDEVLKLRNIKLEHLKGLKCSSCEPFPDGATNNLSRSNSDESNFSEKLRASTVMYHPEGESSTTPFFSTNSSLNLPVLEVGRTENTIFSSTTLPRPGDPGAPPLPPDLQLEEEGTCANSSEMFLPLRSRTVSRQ

CC[C@@H](C)[C@@H](NC(=O)[C@@H](CCCCN)NC(=O)[C@H](NC(=O)[C@@H](Cc1c[nH]c2ccccc12)NC(=O)[C@@H](Cc1ccccc1)NC(=O)[C@@H](CCC(N)=O)NC(=O)[C@@H](CC(N)=O)NC(=O)[C@@H](CCCNC(=N)N)NC(=O)[C@@H](CCCNC(=N)N)NC(=O)[C@@H](CCSC)NC(=O)[C@@H](CCCCN)NC(=O)[C@@H](Cc1c[nH]c2ccccc12)NC(=O)[C@@H](CCCCN)NC(=O)[C@@H](CCCCN)NC(=O)[C@@H](CCCNC(=N)N)NC(=O)[C@H](NC(=O)[C@@H](CO)NC(=O)[C@@H](CO)NC(=O)[C@@H](CCCNC(=N)N)NC(=O)[C@@H](CCCCN)NC(=O)[C@@H](CCCNC(=N)N)NC(=O)[C@@H](C)NC(=O)CNC(=O)[C@@H](CCCCN)NC(=O)[C@@H](CC(C)C)NC(=O)[C@@H](CC(C)C)NC(=O)[C@@H](CC(=O)O)NC(=O)[C@@H](Cc1ccc(O)cc1)NC(=O)[C@@H](CC(C)C)NC(=O)[C@@H](CCC(N)=O)NC(=O)[C@H](N)CCC(=O)O)[C@H](C)O)[C@H](C)CC)C(=O)N[C@H](CCC(N)=O)C(=O)N[C@H](CCCNC(=N)N)C(=O)N[C@H](CC(=O)O)C(=O)O [DRI-BCL10-P4] (H-[dE][dQ][dL][dY][dD][dL][dL][dK]G[dA][dR][dK][dR][dS][dS][dT][dR][dK][dK][dW][dK][dM][dR][dR][dN][dQ][dF][dW][dI][dK][dI][dQ][dR][dD]-OH)
interaction with MBP-BCL10 (co-immunoprecipitation) (MBP-BCL10): interacted with BCL10
GI50 (TMD8 cells): 11.9 ± 6.2 µM
growth of CB-SMOC-dependent cell lines (HBL1, TMD8 and SU-DHL4 cells) (DLBCL cell lines): selectively suppressed the growth of CB-SMOC-dependent cell lines
GI50 (HBL1 cells [1]): 6.78 ± 3.7 µM
intracellular level after the first 4 h (intracellular stability) (HBL1 cells [2]): maintained for a much longer time
uptake by HBL1 cells and level within the first 4 h (HBL1 cells [2]): similarly taken up
NF-κB pathway activation in HBL1 and TMD8 cells (NF-κB signalling pathway): repressed NF-κB pathway activation
NF-κB pathway activation in OCI-LY1 cells (NF-κB signalling pathway): but not in OCI-LY1 cells
cell cycle profile of TMD8 and SU-DHL4 cells (TMD8 and SU-DHL4 cells): cell cycle arrest
growth of OCI-LY1 cell xenograft tumors [3]: neither peptide significantly suppressed the growth
growth of TMD8 cell xenograft tumors ([4]; DRI-BCL10-P4 10 mg/kg Q.d. or BCL10-Ctl 5 mg/kg Q.d., i.v., n=8, p=0.013, Mann-Whitney U test): significantly inhibited the growth
apoptosis rate in tumor sections (TUNEL staining) [4, 7]: significant increase in the apoptosis rate
proliferation in tumor sections (Ki67 staining) [4, 7]: significant decrease in the proliferation
growth of SU-DHL6 cell xenograft tumors [5]: significantly inhibited the growth
adverse effects in the mice (body weight) ([6]; 10 mg/kg Q.d., i.v., Figure 7C-F): without inducing notable adverse effects
histological examination of the major organs (H&E) ([6]; 10 mg/kg daily for 11 days, Figure S8D): did not result in discernible damage to these organs
